According to patent publication US10751324B2, “Treatment of TNF- alpha cytotoxicity” (The University of Chicago, priority 2016, dated 2020):

Experiments:
BAD [1] = assay: Cytotoxic dose TNFα-induced BAD translocation to mitochondria, cell fractionation and immunoblotting in MEFs; settings: MEFs pre-treated with different doses 1 hour, cytotoxic TNFα 4 hours; FIG. 19B
BAD [2] = assay: TNFα-induced BAD mitochondrial translocation in fibroblasts pre-treated with actin stress fiber modulators; assay type: cell-based, mouse; settings: for cytotoxic dose TNFα-induced BAD mitochondrial translocation: pre-treated 1 hour (30 nM Jasplakinolide or 5 μM S1P), then 80 ng/ml TNFα, FIG. 10A, 10C; for BAD mitochondrial translocation with non-cytotoxic dose TNFα: pre-treated 1 hour (1 μg/ml Cytochalasin D or 2.5 μg/ml Latrunculin B), 5 ng/ml TNFα 4 hours, FIG. 10E, 10G
Description: Immunoprecipitation was performed as previously described (12). Caspase 3 assay was performed with Casp-3 cellular activity assay kit using Casp-3 substrate Ac-DEVD-pNA (Calbiochem). Active RhoA, active Src, and active Cdc42 assays were performed with G-LISA assay biochemical kit (Cytoskeleton, Inc.). Active GEF-H1 assay was performed by using GST-RhoA(G17A) to pull down the active GEF-H1 from cell extracts and analyzed by immunoblotting. Cytosol and mitochondria fractionations were prepared by the cytosol/mitochondria fractionation kit (Biovision), according to the manufacturer protocol. Cytoskeleton precipitation and G-actin/F-actin assay were performed by the G-actin/F-actin in vivo assay biochem kit (Cytoskeleton, Inc.)
(§1) WT and Bad-deficient fibroblasts were pre-treated with 30 nM Jasplakinolide (FIG. 10A and FIG. 10B), 5 μM Sphingosine-1-phosphate (S1P) (FIG. 10C and FIG. 10D) or DMSO (control) for 1 hour, followed by stimulation with or without 80 ng/ml TNFα for various times, as indicated. Cell extracts were separated into cytosol and mitochondrial fractions. Subcellular localizations of BAD and IKK-phosphorylated BAD were determined. ß-actin, BCL-xL, and COX-2 were used as control (FIG. 10A and FIG. 10C). Apoptotic cells were identified by Annexin V and PI staining, followed by flow cytometric analysis. Data are as means±s.d. **, P<0.01, as analyzed by two-tailed Student's t test (FIG. 10B and FIG. 10D).
(§2) WT and Bad-deficient fibroblasts were pretreated with 1 μg/ml Cytochalasin D (FIG. 10E and FIG. 10F), 2.5 μg/ml Latrunculin B (FIG. 10G and FIG. 10H), or DMSO (control) for 1 hours, followed by stimulation with or without 5 ng/ml or 80 ng/ml TNFα for 4 hours (FIG. 10E and FIG. 10G) or 12 hours (FIG. 10F and FIG. 10H). Cell extracts were separated into cytosol and mitochondrial fractions. Subcellular localizations of BAD and IKK phosphorylated BAD were determined. ß-actin, BCL-xL, and COX-2 were used as control (FIG. 10E and FIG. 10G). Apoptotic cells were identified by Annexin V and PI staining, followed by flow cytometric analysis. Data are means±s.d. and represent three individual experiments. **, P<0.01, as analyzed by two-tailed Student's t test (FIG. 10B, FIG. 10D, FIG. 10F, and FIG. 10H).

WT fibroblasts = assay: TNFα-induced apoptosis in fibroblasts pre-treated with actin stress fiber modulators, Annexin V/PI flow cytometry; assay type: cell-based, mouse; settings: for cytotoxic dose TNFα-induced apoptosis: pre-treated 1 hour (30 nM Jasplakinolide or 5 μM S1P), then 80 ng/ml TNFα, FIG. 10B, 10D; for apoptosis with non-cytotoxic dose TNFα: pre-treated 1 hour (1 μg/ml Cytochalasin D or 2.5 μg/ml Latrunculin B), 5 ng/ml TNFα 12 hours, FIG. 10F, 10H
Description: Annexin V and propidium iodide (PI) staining was performed with FITC Annexin V apoptosis Detection kit (BD Pharmingen). Apoptotic cells were analyzed by FACS canto flow cytometer (BD Biosciences).
as §1, §2

[3] = system: wild type mice subjected to CLP surgery; assay: Polymicrobial infection model (cecal ligation and puncture, CLP), mortality rate; assay type: in vivo, mouse; settings: 2.5 mg/kg i.p. 6 hours before CLP and each 12 hours after surgery; n=10, p<0.01; FIG. 20B
Description: Wild type C57B6/J6 mice were maintained in a specific pathogen-free facility and housed on a 12:12-hour light/dark photoperiod at an ambient temperature of 22° C.±2° C. All animal experiments were conducted in accordance with the protocols approved by the Institutional Animal Care and Use Committee of the University of Chicago. 6-8 week old male mice were used for all of the experiments. The bacterial infusion model was performed by intraperitoneal (i.p.) injection of E. coli (ATCC 25922; 3×10^7 CFU). For the polymicrobial infection model, the CLP procedure was performed. The severity of CLP was adjusted to a high-grade sepsis. For the mock CLP procedure (Sham), mice underwent the same abdominal surgery as CLP procedure, except were not subject to the cecal ligation and puncture. Inhibitor treatments were performed using i.p. injection of the compound at a dose of 2.5 mg/kg body weight. Same amount of DMSO were i.p. injected as a control. […] Mortality rates were recorded for up to 120 hours for the CLP model and 50-60 hours for the E. coli model after the treatment and dying mice were pre-moved. […]
In these experiments, wild type mice were i.p injected with or without saracatinib (2.5 mg/kg body weight) for 6 hours, then challenged with E. coli (5×10^7CFU, i.p. injection). […] Mortality rate was determined (FIG. 20A); n=6, p<0.01. […] Mortality rate was determined (FIG. 20B); n=10, p<0.01.

IKKß = target: T1, IKKß (Mus musculus, UniProt O88351); assay: IKKß phosphorylation by immunoblotting in TNFα-treated MEFs ("in vitro kinase assay"); assay type: cell-based; settings: MEFs pre-treated with different doses for 1 hour, then cytotoxic TNFα 15 min; immunoblot, FIG. 17
T1 construct: Total cell lysate was prepared for western blotting analysis; endogenous in cells; host or cells: mouse embryonic fibroblasts (MEFs)
T1 sequence (O88351 1-757): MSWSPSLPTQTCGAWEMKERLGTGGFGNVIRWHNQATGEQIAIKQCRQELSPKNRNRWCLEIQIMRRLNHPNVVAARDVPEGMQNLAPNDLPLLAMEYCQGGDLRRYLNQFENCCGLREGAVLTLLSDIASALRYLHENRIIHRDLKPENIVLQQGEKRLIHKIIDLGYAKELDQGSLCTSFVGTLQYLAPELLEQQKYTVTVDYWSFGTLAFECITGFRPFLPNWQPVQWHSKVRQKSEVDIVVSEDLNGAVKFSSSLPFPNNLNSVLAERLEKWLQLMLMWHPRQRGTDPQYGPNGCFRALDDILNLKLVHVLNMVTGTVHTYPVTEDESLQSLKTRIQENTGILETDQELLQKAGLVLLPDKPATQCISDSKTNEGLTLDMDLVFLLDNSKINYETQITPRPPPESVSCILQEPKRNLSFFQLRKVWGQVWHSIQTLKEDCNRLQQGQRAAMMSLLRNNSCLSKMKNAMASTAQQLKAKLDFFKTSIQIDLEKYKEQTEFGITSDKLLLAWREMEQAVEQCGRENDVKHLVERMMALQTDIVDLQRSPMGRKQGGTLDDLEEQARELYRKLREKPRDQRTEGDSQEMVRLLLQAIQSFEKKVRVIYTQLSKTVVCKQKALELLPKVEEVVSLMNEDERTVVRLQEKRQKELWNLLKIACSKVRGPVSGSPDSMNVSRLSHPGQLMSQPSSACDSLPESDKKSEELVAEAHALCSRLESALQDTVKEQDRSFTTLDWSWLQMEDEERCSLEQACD

With `CN1CCN(CCOc2cc(OC3CCOCC3)c3c(Nc4c(Cl)ccc5c4OCO5)ncnc3c2)CC1` [saracatinib] the “cytotoxic dose TNFα-induced BAD translocation to mitochondria” value (BAD [1]) was “inhibit”.

With `C/C1=C\[C@H](C)C[C@H](C)OC(=O)C[C@H](c2ccc(O)cc2)NC(=O)[C@@H](Cc2c(Br)[nH]c3ccccc23)N(C)C(=O)[C@H](C)NC(=O)[C@@H](C)C1` [Jasplakinolide] the “cytotoxic dose TNFα-induced BAD mitochondrial translocation” value (BAD [2]) was “significantly reduced” and the “cytotoxic dose TNFα-induced apoptosis” value (WT fibroblasts) was “significantly reduced”.

In the case of `CCCCCCCCCCCCC/C=C/[C@@H](O)[C@@H](N)COP(=O)(O)O` [sphingosine-1-phosphate, Sphingosine-1-phosphate], the “cytotoxic dose TNFα-induced BAD mitochondrial translocation” value (BAD [2]) is reported as “significantly reduced” and the “cytotoxic dose TNFα-induced apoptosis” value (WT fibroblasts) is reported as “significantly reduced”.

For `C/C1=C/C(=O)O[C@@H]2C[C@@H](CC[C@H](C)/C=C\CC1)O[C@@](O)([C@@H]1CSC(=O)N1)C2` [latrunculin B, Latrunculin B], the “BAD mitochondrial translocation with non-cytotoxic dose TNFα” value (BAD [2]) was “induced” and the “apoptosis with non-cytotoxic dose TNFα” value (WT fibroblasts) was “induced”.

In the case of `[2H]C([2H])([2H])N1CCN(CCOc2cc(OC3CCOCC3)c3c(Nc4c(Cl)ccc5c4OCO5)ncnc3c2)CC1` [ZG5129], the “polymicrobial infection-induced severe sepsis (mortality rate)” value [3] is reported as “inhibit”.

In the case of `C=C1[C@@H](C)[C@H]2[C@H](Cc3ccccc3)NC(=O)[C@]23[C@H](OC(C)=O)/C=C/[C@@](C)(O)C(=O)[C@@H](C)C/C=C/[C@H]3[C@@H]1O` [cytochalasin D, Cytochalasin D], the “BAD mitochondrial translocation with non-cytotoxic dose TNFα” value (BAD [2]) is reported as “induced” and the “apoptosis with non-cytotoxic dose TNFα” value (WT fibroblasts) is reported as “induced”.

In the case of `Cc1nc(Nc2ncc(C(=O)Nc3c(C)cccc3Cl)s2)cc(N2CCN(CCO)CC2)n1.O` [dasatinib, N-(2-chloro-6-methylphenyl)-2-[[6-[4-(2-hydroxyethyl)-1-piperazinyl]-2-methyl-4-pyrimidinyl]amino]-5-thiazole carboxamide monohydrate], the “cytotoxic dose TNFα-induced BAD translocation to mitochondria” value (BAD [1]) is reported as “inhibit” and the IKK phosphorylation (IKKß) is reported as “do not inhibit”.
